Assay results published in patent publication US6495566B2, “Tetrahydroquinoline derivatives as glycine antagonists” (Smithkline Beecham Corporation, priority 1998, dated 2002).

Tested on: not given
Assay: not given
Conditions: not given

SMILES | melting point
O=C(O)C1CC(=C2CCCN(c3ccccc3)C2=O)c2ccc(Cl)cc2N1 (racemic) [Example 23, (±)-7-chloro-4-(2-oxo-1-phenyl-3-piperidinylidene)-1,2,3,4-tetrahydro-2-quinolinecarboxylic acid] | > 130 °C

Target: T1, strychnine insensitive glycine binding site associated with the NMDA receptor complex (Rattus norvegicus, UniProt P35439)
T1 construct: from tissue
Assay: affinity for the strychnine insensitive glycine binding site (procedure of Kishimoto H. et al)
Conditions: not given
Description: Thus the ability to bind at the strychnine insensitive glycine binding site was determined using the procedure of Kishimoto H et al., J Neurochem 1981, 37, 1015-1024.
The affinity of the compound of the invention for the strychnine insensitive glycine binding site was determined using procedure of Kishimoto H. et al […].

SMILES | Ki
O=C(O)C1CC(C2=CCN(c3cccnc3)C2=O)c2ccc(Cl)cc2N1 (racemic) [Example 14, (±)-Sodium 7-chloro-4-(1-(3-pyridin)-Δ^3-pyrrolin-2-one-3yl)-1,2,3,4-tetrahydroquinoline-2-carboxylate] | 12.6 nM
O=C(O)C1CC(C2=CCCN(c3ccccc3)C2=O)c2ccc(Cl)cc2N1 (racemic) [Example 15, (±)-Sodium 7-chloro-4-(1-phenyl-Δ^3-5,6-dihydro-pyridin-2-one-3yl)-1,2,3,4-tetrahydroquinoline-2-carboxylate] | 18.6 nM
O=C(O)C1CC(C2=CCN(c3ccccc3)C2=O)c2c(Cl)cc(Cl)cc2N1 (racemic) [Example 16, (±)-Sodium 5,7-dichloro-4-(1-phenyl-Δ^3-pyrrolin-2-one-3yl)-1,2,3,4-tetrahydroquinoline-2-carboxylate] | 15.8 nM
CC(=O)Nc1ccc(N2CC=C(C3CC(C(=O)O)Nc4cc(Cl)ccc43)C2=O)cc1 (racemic) [Example 18, (+/−)-7-chloro-4-(1-(4-acetylamino)-phenyl-Δ^3-pyrrolin-2-one-3yl)-1,2,3,4-tetrahydroquinoline-2-carboxylic acid] | 16.6 nM
CS(=O)(=O)Nc1ccc(N2CC=C(C3CC(C(=O)O)Nc4cc(Cl)ccc43)C2=O)cc1 (racemic) [Example 19, (+/−)7-chloro-4-(1-(4-methanesulfonylamino)-phenyl-1-Δ^3-pyrrolin-2-one-3yl)-1,2,3,4-tetrahydroquinoline-2-carboxylic acid] | 1.26 nM
O=C(O)C1CC(=C2CCN(c3cccnc3)C2=O)c2ccc(Cl)cc2N1 (racemic) [Example 22, (±)-Sodium 7-chloro-4-(2-oxo-1-(pyridn-3yl)-pyrrolidin-3-ylidene)-1,2,3,4-tetrahydro-2-quinolinecarboxylate] | 12.6 nM
O=C(O)C1CC(=C2NC(=O)N(c3ccccc3)C2=O)c2ccc(Cl)cc2N1 (racemic) [Example 24, (±)-7-chloro-4-(2,5-dioxo-1-phenyl-imidazolidin-4-ylidene)-1,2,3,4-tetrahydro-2-quinolinecarboxylic acid] | 15.8 nM
CC(=O)Nc1ccc(N2CCC(=C3CC(C(=O)O)Nc4cc(Cl)ccc43)C2=O)cc1 (racemic) [Example 25, (+/−)-7-chloro-4-(2-oxo-1-(4-acetylamino)phenyl-pyrrolidin-3-ylidene)-1,2,3,4-tetrahydro-2-quinolinecarboxylic acid] | 70.8 nM
O=C(O)C1CC(C2=CCN(c3ccccc3)C2=O)c2c(Cl)cc(Cl)cc2N1 (stereo not shown) [Example 29, Sodium, 5,7-Dichloro-4-(2-oxo-1-phenyl-Δ^3-pyrrolin-2-one-3-yl)-1,2,3,4-tetrahydro-quinoline-2-carboxylic acid; (enatiomer A)] | 2 nM
O=C(O)C1CC(=C2CCN(c3ccccc3)C2=O)c2c(Cl)cc(Cl)cc2N1 (stereo not shown) [Example 30, Sodium 5,7-dichloro-4-(2-oxo-(1-phenyl)pyrrolidin-3-ylidene)-1,2,3,4-tetrahydro-2-quinoline carboxylate(enatiomer A)] | 20 nM

Tested on: formalin-induced pain
Assay: formalin test in mouse (licking time of injected paw)
Type: in vivo
Conditions: administered orally 1 hour before formalin injection
Description: The ability of compounds of the invention to inhibit pain in mouse has been assessed in the formalin test as described by Dubuisson and Dennis (Pain, 1977, 4:161-174). In this test 20 μl of 1% formalin was injected into the plantar surface of the mouse left hind paw. The amount of time, in seconds, the animals spent licking the injected paw for the first 5 minutes (early phase) and then from 20 to 60 minutes (late phase) after formalin was used as measurement of the intensity of pain. The compounds of the invention were administered orally 1 hour before formalin injection.

SMILES | ED50 (dose required to reduce the licking time by 50%)
O=C(O)C1CC(C2=CCN(c3ccccc3)C2=O)c2ccc(Cl)cc2N1 (single isomer, unassigned; (+)) [Example 17, (+)Sodium7-chloro-4-(1-phenyl-Δ^3pyrrolin-2-one-3yl)-1,2,3,4-tetrahydroquinoline-2-carboxylate] | 0.3 mg/kg po
O=C([O-])C1CC(C2=CCN(c3ccccc3)C2=O)c2ccc(Cl)cc2N1.[Na+] (single isomer, unassigned; (-)) [Example 2, (−)-Sodium 7-chloro-4-(1-phenyl-Δ^3-pyrrolin-2-one-3yl)-1,2,3,4-tetrahydroquinoline-2-carboxylate] | 0.03 mg/kg po
O=C([O-])C1CC(=C2CCN(c3ccccc3)C2=O)c2ccc(Cl)cc2N1.[Na+] (single isomer, unassigned; (-)) [Example 21, (−)-Sodium 7-chloro-4-(2-oxo-1-phenyl-3-pyrrolidinylidene)-1,2,3,4-tetrahydro-2-quinolinecarboxylate] | 0.14 mg/kg po
